Reference: ChEMBL document CHEMBL1131875, “Selective inhibition of low affinity IgE receptor (CD23) processing: P1' bicyclomethyl substituents” (Bioorg Med Chem Lett, 1999)

Legend:
[1] = biological target: T1, Interstitial collagenase (Homo sapiens, UniProt P03956); experiment: Inhibitory activity against matrix metalloprotease (MMP-1)
T1 sequence (P03956 whole entry): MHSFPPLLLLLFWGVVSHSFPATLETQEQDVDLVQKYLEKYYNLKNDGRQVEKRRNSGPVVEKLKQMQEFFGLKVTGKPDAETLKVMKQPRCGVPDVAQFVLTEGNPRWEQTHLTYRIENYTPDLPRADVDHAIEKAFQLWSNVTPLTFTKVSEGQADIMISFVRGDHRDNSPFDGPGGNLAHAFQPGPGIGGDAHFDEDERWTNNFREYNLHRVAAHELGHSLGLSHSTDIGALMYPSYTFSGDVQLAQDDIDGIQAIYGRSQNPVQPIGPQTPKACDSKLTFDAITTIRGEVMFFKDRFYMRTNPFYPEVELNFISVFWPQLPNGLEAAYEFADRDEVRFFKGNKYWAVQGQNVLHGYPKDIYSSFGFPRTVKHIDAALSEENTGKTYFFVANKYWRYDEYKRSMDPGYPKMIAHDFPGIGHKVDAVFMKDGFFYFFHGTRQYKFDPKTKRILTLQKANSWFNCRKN

[2] = biological target: T2, Stromelysin-1 (Homo sapiens, UniProt P08254); experiment: Inhibition of matrix metalloprotease (MMP-3)
Target sequence in this assay (P08254 whole entry): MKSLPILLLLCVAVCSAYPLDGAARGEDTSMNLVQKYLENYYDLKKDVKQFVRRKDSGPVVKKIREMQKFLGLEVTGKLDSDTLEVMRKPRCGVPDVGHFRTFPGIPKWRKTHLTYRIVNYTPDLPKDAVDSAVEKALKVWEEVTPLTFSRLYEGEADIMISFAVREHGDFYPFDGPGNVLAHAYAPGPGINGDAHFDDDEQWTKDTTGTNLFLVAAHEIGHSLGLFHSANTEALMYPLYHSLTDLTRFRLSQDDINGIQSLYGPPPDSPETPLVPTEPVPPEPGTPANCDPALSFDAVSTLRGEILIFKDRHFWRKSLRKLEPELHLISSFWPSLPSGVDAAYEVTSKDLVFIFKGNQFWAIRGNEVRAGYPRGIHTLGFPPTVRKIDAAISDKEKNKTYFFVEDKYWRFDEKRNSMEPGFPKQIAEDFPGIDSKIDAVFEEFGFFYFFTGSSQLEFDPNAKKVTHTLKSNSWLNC

[3] = biological target: Matrix metalloproteinase-9 (Homo sapiens, UniProt P14780); experiment: Inhibitory activity against matrix metalloprotease (MMP-9)
[4] = biological target: T2, Stromelysin-1; experiment: Inhibition of matrix metalloprotease (MMP-3) at 10 uM
Target sequence in this assay (P08254 100-477 limits assumed): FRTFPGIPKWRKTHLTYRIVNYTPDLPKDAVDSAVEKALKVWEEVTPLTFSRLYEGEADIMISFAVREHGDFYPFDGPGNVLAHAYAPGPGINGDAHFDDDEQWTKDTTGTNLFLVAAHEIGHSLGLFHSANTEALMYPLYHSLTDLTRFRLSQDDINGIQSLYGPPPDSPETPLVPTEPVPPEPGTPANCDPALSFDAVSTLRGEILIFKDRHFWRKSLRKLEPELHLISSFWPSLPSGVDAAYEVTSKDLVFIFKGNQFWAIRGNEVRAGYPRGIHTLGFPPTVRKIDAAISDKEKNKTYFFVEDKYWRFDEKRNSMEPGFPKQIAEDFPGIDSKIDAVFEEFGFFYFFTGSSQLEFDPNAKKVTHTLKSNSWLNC

Matrix metalloproteinase-9, sequence (P14780 whole entry): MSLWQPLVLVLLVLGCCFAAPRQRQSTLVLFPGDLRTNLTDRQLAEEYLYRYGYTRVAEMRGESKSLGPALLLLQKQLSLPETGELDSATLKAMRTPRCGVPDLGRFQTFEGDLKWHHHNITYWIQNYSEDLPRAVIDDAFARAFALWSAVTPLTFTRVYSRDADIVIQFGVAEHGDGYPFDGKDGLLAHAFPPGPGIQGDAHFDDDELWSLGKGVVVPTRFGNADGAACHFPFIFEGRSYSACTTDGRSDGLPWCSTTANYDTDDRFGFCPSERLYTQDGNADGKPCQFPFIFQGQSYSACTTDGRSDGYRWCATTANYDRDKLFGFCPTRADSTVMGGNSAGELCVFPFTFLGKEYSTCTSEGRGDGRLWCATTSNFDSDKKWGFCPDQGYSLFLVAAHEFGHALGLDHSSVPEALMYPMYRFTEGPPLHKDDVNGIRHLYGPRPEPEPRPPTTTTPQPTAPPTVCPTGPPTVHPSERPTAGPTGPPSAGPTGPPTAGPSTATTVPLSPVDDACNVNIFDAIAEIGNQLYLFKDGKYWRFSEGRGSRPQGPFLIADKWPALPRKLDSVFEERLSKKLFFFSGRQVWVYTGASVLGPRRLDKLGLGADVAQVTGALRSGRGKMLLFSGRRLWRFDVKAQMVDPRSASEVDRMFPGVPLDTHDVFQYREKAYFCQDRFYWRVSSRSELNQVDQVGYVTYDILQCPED

Structure (SMILES)	IC50 [1]	IC50 [2]	IC50 [3]	inhibition [4]
CC(C)(C)[C@H](NC(=O)C(Cc1ccc2ccccc2c1)C(O)C(=O)NO)C(N)=O (single isomer, unassigned)	> 10000 nM	> 10000 nM	640 nM	–
CC(C)(C)[C@H](NC(=O)[C@H](Cc1ccc2ccc(F)cc2c1)[C@H](O)C(=O)NO)C(N)=O	> 10000 nM	–	–	–
CC(C)(C)[C@H](NC(=O)C(C[C@@H]1CCc2ccccc2C1)[C@H](O)C(=O)NO)C(N)=O (stereo not given in full)	1800 nM	–	410 nM	83%
CC(C)(C)[C@H](NC(=O)C(C[C@H]1CCc2ccccc2C1)[C@H](O)C(=O)NO)C(N)=O (stereo not given in full)	800 nM	230 nM	230 nM	–
NC(=O)[C@H](Cc1ccccc1)NC(=O)[C@H](Cc1nc2ccccc2s1)[C@H](O)C(=O)NO	500 nM	–	–	–
CC(C)(C)[C@H](NC(=O)C(Cc1cnc2ccccc2c1)C(O)C(=O)NO)C(N)=O (single isomer, unassigned)	5000 nM	3000 nM	190 nM	–
O=C(C[C@@H](Cc1ccc2ccccc2c1)C(=O)N[C@@H](Cc1ccccc1)C(=O)NCc1ccccc1)NO	> 1000 nM	–	–	–
CNC(=O)[C@@H](NC(=O)C(Cc1ccc2ccccc2c1)C(O)C(=O)NO)C(C)(C)C (single isomer, unassigned)	> 1000 nM	–	–	–

Second part, the compound after the results:

IC50 [1]	IC50 [2]	IC50 [3]	inhibition [4]	Structure (SMILES)
> 10000 nM	–	–	–	NC(=O)[C@H](Cc1ccccc1)NC(=O)C(Cc1ccc2ccc(O)cc2c1)C(O)C(=O)NO (single isomer, unassigned)
< 100 nM	–	–	–	CNC(=O)[C@H](Cc1ccccc1)NC(=O)[C@H](Cc1cc2ccccc2o1)[C@H](O)C(=O)NO
> 10000 nM	–	–	–	NC(=O)[C@H](Cc1ccccc1)NC(=O)[C@H](Cc1ccc2ccc(F)cc2c1)[C@H](O)C(=O)NO
> 10000 nM	–	–	–	NC(=O)[C@H](Cc1ccccc1)NC(=O)C(Cc1ccc2ccccc2c1)C(O)C(=O)NO (single isomer, unassigned)
140 nM	–	–	–	NC(=O)[C@H](Cc1ccccc1)NC(=O)[C@H](Cc1cc2ccccc2s1)[C@H](O)C(=O)NO
> 1000 nM	–	–	–	CNC(=O)[C@H](Cc1ccccc1)NC(=O)C(Cc1ccc2ccccc2c1)C(O)C(=O)NO (single isomer, unassigned)
> 10000 nM	3000 nM	850 nM	–	NC(=O)[C@H](Cc1ccccc1)NC(=O)[C@H](Cc1ccc2cc(F)ccc2c1)[C@H](O)C(=O)NO
